Assay results reported in paper PMC6269892, “Ligand Binding Affinities of Arctigenin and Its Demethylated Metabolites to Estrogen Receptor Alpha” (Molecules, 2013).

Columns and labels:
[1] = molecular target: T1, estrogen receptor alpha (ERalpha) (Homo sapiens, UniProt P03372); assay: Estrogen-R (α) competitor screening kit, ligand binding screen; settings: for IC50: ER alpha competitor binding, non-linear regression, one site competition; for RBA (Relative binding affinity): IC50 of estradiol divided by IC50 of the tested compound, multiplied by 100, Estradiol = 100; for % Binding to ERα: mean ± S.E.M., n = 4
T1 construct: purchased Wako Chemicals (Osaka, Japan)
T1 sequence (P03372 1-595): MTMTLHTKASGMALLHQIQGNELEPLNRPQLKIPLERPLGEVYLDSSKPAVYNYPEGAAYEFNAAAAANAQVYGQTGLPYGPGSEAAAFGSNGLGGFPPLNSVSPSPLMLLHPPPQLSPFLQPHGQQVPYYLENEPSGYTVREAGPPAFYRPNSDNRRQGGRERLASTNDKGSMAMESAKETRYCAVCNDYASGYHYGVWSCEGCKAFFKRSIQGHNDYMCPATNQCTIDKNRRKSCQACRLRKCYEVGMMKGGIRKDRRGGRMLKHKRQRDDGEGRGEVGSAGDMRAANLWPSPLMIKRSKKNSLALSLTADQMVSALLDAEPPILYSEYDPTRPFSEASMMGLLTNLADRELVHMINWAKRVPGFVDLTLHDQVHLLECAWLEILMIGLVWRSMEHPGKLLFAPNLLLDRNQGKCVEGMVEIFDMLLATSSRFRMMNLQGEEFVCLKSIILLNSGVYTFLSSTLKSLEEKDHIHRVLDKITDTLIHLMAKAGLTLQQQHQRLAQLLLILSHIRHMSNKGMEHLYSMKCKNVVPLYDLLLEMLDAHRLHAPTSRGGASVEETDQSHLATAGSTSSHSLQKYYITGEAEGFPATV
Protocol: An estrogen-R (α) competitor screening kit was purchased from Wako Chemicals (Osaka, Japan). The assay depends on the competition between the samples applied in different concentrations and the labeled estrogen mixture. The amount of the ligand that binds to the ERalpha coated on the microplate well is determined by the dynamic equilibrium among all the ligand concentrations in the mixture, the difference of their binding affinities to the receptor, and the incubation time. Therefore, the reduction in fluorescence intensities from the labeled estrogen retained is an indication of the affinity of the added compounds to the estrogen receptor. (−)-Arctigenin (8) and its metabolites were tested in 10^−5, 10^−4, 5 × 10^−4, and 5 × 10^−3 M concentrations. […] The results were calculated as percentages of the negative control.
Each set of experiments was repeated at least three times. Values are expressed as mean ± S.E.M. One-way analysis of variance followed by Dunnett’s test was used for statistical analysis. The IC50 was calculated using a non-linear regression analysis (for one site competition).

[2] = test system: MCF-7 human breast cancer cells; parameters: method as in earlier work; settings: estradiol-mediated proliferative characteristics; ref 10 (Xie et al.); cited from earlier work
[3] = compound at 5 × 10^−3 M, percentage of the negative control
[4] = compound at 5 × 10^−4 M, percentage of the negative control
[5] = compound at 10^−4 M, percentage of the negative control
[6] = compound at 10^−5 M, percentage of the negative control (labeled estrogen mixture)

Row | IC50 [1] [µM] | RBA (Relative binding affinity) [1] | % Binding to ERα [1, 3] [%] | % Binding to ERα [1, 4] [%] | % Binding to ERα [1, 5] [%] | % Binding to ERα [1, 6] [%] | Structure (SMILES) | proliferation of MCF-7 human breast cancer cells [2]
1 | 1600 | 1.2 × 10^−3 | 65.3 ± 0.2 | 34.8 ± 1.3 | 13.7 ± 0.7 | 5.6 ± 3.3 | O=C1OC[C@H](Cc2ccc(O)c(O)c2)[C@H]1Cc1ccc(O)c(O)c1 [Compound 1, (−)-dihydroxyenterolactone] | 
2 | 790 | 2.5 × 10^−3 | 67.7 ± 0.2 | 44.4 ± 0.9 | 13.5 ± 2.0 | 1.4 ± 1.2 | COc1cc(C[C@H]2C(=O)OC[C@@H]2Cc2ccc(O)c(O)c2)ccc1O [Compound 2, (2R,3R)-2-(4-hydroxy-3-methoxybenzyl)-3-(3,4-dihydroxybenzyl)-butyrolactone] | 
3 | 1900 | 1.0 × 10^−3 | 67.5 ± 0.2 | 25.8 ± 0.8 | 14.1 ± 1.3 | 2.2 ± 1.6 | COc1cc(C[C@H]2COC(=O)[C@@H]2Cc2ccc(O)c(O)c2)ccc1O [Compound 3] | 
4 | 2500 | 7.9 × 10^−4 | 63.2 ± 0.3 | 19.6 ± 2.3 | −0.5 ± 0.7 | 1.0 ± 1.4 | COc1ccc(C[C@H]2COC(=O)[C@@H]2Cc2ccc(O)c(O)c2)cc1O [Compound 4] | 
5 | > 5000 |  | 17.6 ± 1.1 | 0.1 ± 2.6 | 18.1 ± 9.0 | 0.4 ± 0.9 | COc1cc(C[C@H]2COC(=O)[C@@H]2Cc2ccc(O)c(OC)c2)ccc1O [Compound 5, (−)-matairesinol] | 
6 | 2500 | 7.9 × 10^−4 | 64.5 ± 0.2 | 16.6 ± 0.9 | 1.4 ± 2.4 | −2.3 ± 0.9 | COc1ccc(C[C@H]2COC(=O)[C@@H]2Cc2ccc(O)c(O)c2)cc1OC [Compound 6] | stimulated the proliferation
7 | > 5000 |  | 30.1 ± 1.7 | −4.2 ± 0.8 | 1.2 ± 1.7 | 3.6 ± 0.6 | COc1ccc(C[C@H]2COC(=O)[C@@H]2Cc2ccc(O)c(OC)c2)cc1O [Compound 7] | 

Row | Structure (SMILES) | IC50 [1] [µM] | RBA (Relative binding affinity) [1] | % Binding to ERα [1, 3] [%] | % Binding to ERα [1, 4] [%] | % Binding to ERα [1, 5] [%] | % Binding to ERα [1, 6] [%] | proliferation of MCF-7 human breast cancer cells [2]
8 | COc1cc(C[C@H]2C(=O)OC[C@@H]2Cc2ccc(OC)c(OC)c2)ccc1O [Compound 8, (−)-arctigenin] | > 5000 |  | 19.4 ± 1.5 | −4.1 ± 3.5 | −4.3 ± 0.8 | −1.4 ± 0.8 | 
